Test systems include CCRF-CEM leukemia; DU-145 prostate; HCT-116 colon; KM12 colon; MDA-MB-435; NCI-H460 lung; SNB-75 CNS; TK-10 renal; RXF 393 renal; UACC-257 melanoma.
What all share (experiment): inhibition of tumour cell growth, NCI panel, 48 h

Where “and” joins values, the source holds several entries; their conditions need not be identical. Equal values may be shown once.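 Following 48 hours of exposure in 96-well plates, responses at five concentrations were used to interpolate endpoints linearly. Here, GI50 denotes the concentration required for 50% inhibition of growth. TGI marks complete inhibition of growth.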 Where only a bound is given, the exact number is not on record here.

As for `O=C(/C=C/c1nnc2n(Cc3ccccc3)c(=O)c3c4c(sc3n12)CCCC4)c1ccccc1`, the GI50 with CCRF-CEM leukemia is 0.328 µM and 0.205 µM; in the experiment on DU-145 prostate, greater than 100 µM; in the experiment on HCT-116 colon, 0.31 µM; in the experiment with KM12 colon, 4.1 µM; with MDA-MB-435, 3.54 µM; with NCI-H460 lung it was greater than 100 µM. Besides, the values for the GI50 with SNB-75 CNS and in the experiment on TK-10 renal were 21.3 µM and 0.354 µM, respectively. For the same compound, the TGI was 4.69 µM and 0.699 µM in the experiment on CCRF-CEM leukemia; greater than 100 µM in the experiment with DU-145 prostate; 1.12 µM with HCT-116 colon; greater than 100 µM in the experiment with NCI-H460 lung; 91.2 µM in the experiment on SNB-75 CNS; 1.38 µM in the experiment on TK-10 renal.
For the compound `CCCCN(CCCC)CC(C(=O)Nc1ccc([N+](=O)[O-])cc1[N+](=O)[O-])/C(C)=N\NC(=O)C[N+](C)(C)C` (centres undefined), the TGI in the experiment with CCRF-CEM leukemia, with HCT-116 colon, in the experiment with KM12 colon, in the experiment with NCI-H460 lung, in the experiment with RXF 393 renal and in the experiment with SNB-75 CNS was greater than 100 µM in each case. Moreover, the TGI in the experiment with TK-10 renal and in the experiment with UACC-257 melanoma was greater than 100 µM each time.
As to `C#CCn1c(=O)c2cccnc2n(CC#C)c1=O`, the TGI in the experiment on CCRF-CEM leukemia, in the experiment with HCT-116 colon, in the experiment on KM12 colon, with NCI-H460 lung, in the experiment on RXF 393 renal and with SNB-75 CNS was greater than 100 µM throughout. The TGI with TK-10 renal and in the experiment with UACC-257 melanoma was greater than 100 µM in each case.
In the case of `CCc1cccc(CC)c1NC(=O)CC1SC(N)=NC1=O` (centres undefined), the TGI in the experiment with CCRF-CEM leukemia, in the experiment on HCT-116 colon, with KM12 colon, in the experiment with NCI-H460 lung, in the experiment on RXF 393 renal and with SNB-75 CNS was greater than 100 µM each time. Also, the TGI in the experiment on TK-10 renal and in the experiment with UACC-257 melanoma was greater than 100 µM each time.
For the compound `CCOC(=O)[C@@H](C)C[C@H](Cc1ccccc1)NC(=O)c1csc([C@@H](C[C@H](C(C)C)N(C)C(=O)[C@@H](NC(=O)[C@H]2C[C@H](O)CCN2C)C(C)C)OC(C)=O)n1`, the GI50 was 0.00534 µM with CCRF-CEM leukemia; 0.00421 µM with DU-145 prostate; 0.0023 µM in the experiment with KM12 colon; 0.0063 µM in the experiment on NCI-H460 lung; 0.00955 µM in the experiment with RXF 393 renal; 0.00384 µM in the experiment on SNB-75 CNS. Moreover, the GI50 with TK-10 renal is 0.426 µM; with UACC-257 melanoma, greater than 16.7 µM. Moreover, the TGI in the experiment with CCRF-CEM leukemia, in the experiment on NCI-H460 lung, in the experiment on SNB-75 CNS, in the experiment with TK-10 renal and in the experiment on UACC-257 melanoma was greater than 16.7 µM in each case.
Consider `CC(=O)CC(=O)NC=O`, for which the TGI with CCRF-CEM leukemia, in the experiment with HCT-116 colon, in the experiment with KM12 colon, with NCI-H460 lung, in the experiment on RXF 393 renal and with SNB-75 CNS was greater than 100 µM throughout. Besides, the TGI in the experiment with TK-10 renal and with UACC-257 melanoma was greater than 100 µM each time.
Consider `C=C1c2[nH]c3ccccc3c2CC(C(=O)O)N1C(O)c1ccc(S(=O)(=O)O)cc1` (centres undefined), for which the TGI in the experiment on CCRF-CEM leukemia, with HCT-116 colon, with KM12 colon, in the experiment on NCI-H460 lung, in the experiment on RXF 393 renal and with SNB-75 CNS was greater than 100 µM throughout. In addition, the TGI in the experiment on TK-10 renal and in the experiment on UACC-257 melanoma was greater than 100 µM throughout.
For the compound `C=CCC12CCC(=O)[C@@]1(C)CC=C(O)C2=O` (some centres undefined), the TGI in the experiment with CCRF-CEM leukemia, in the experiment with HCT-116 colon, with KM12 colon, in the experiment with NCI-H460 lung, in the experiment on RXF 393 renal and in the experiment on SNB-75 CNS was greater than 100 µM in each case. In addition, the TGI with TK-10 renal and in the experiment on UACC-257 melanoma was greater than 100 µM throughout.
Turning to `O=c1c(O)cc2c(O)oc3c(=O)c(O)c(O)c4c(O)oc1c2c43`, the TGI in the experiment with CCRF-CEM leukemia, in the experiment on HCT-116 colon, in the experiment on KM12 colon, with NCI-H460 lung, in the experiment on RXF 393 renal and in the experiment on SNB-75 CNS was greater than 100 µM each time. In addition, the TGI with TK-10 renal and in the experiment on UACC-257 melanoma was greater than 100 µM throughout.
Regarding `COc1cc2c(cc1OCCCCn1c(-c3cccs3)nc3ccccc31)N=C[C@@H]1CCCN1C2=O`, the GI50 in the experiment with CCRF-CEM leukemia was 0.247 µM; in the experiment on DU-145 prostate it was 1.32 µM; in the experiment on HCT-116 colon, 1.75 µM; in the experiment with KM12 colon it was 1.92 µM; in the experiment with MDA-MB-435, 1.39 µM; with NCI-H460 lung it was 1.55 µM. The GI50 with SNB-75 CNS is 1.22 µM; with TK-10 renal, 2.09 µM; in the experiment with UACC-257 melanoma, 2.54 µM. For the same compound, the TGI with CCRF-CEM leukemia stood at 1.37 µM; with DU-145 prostate, 6.74 µM; in the experiment with KM12 colon, 5.38 µM; in the experiment with MDA-MB-435, 3.75 µM; in the experiment with NCI-H460 lung, 4.38 µM; in the experiment on SNB-75 CNS, 2.54 µM. Besides, the results for the TGI in the experiment on TK-10 renal and with UACC-257 melanoma were 6.74 µM and 5.9 µM, respectively.
In the case of `Fc1ccc(C2SCc3nc4ccccc4n32)cc1F` (centres undefined), the TGI in the experiment on CCRF-CEM leukemia is 97 µM; in the experiment with HCT-116 colon, greater than 100 µM; in the experiment with KM12 colon, greater than 100 µM; with NCI-H460 lung it was greater than 100 µM; in the experiment with RXF 393 renal, 80 µM; with SNB-75 CNS, 56.9 µM. The TGI in the experiment with TK-10 renal is 82.3 µM; in the experiment on UACC-257 melanoma, greater than 100 µM.
On to `COC(=O)c1nc(C(=O)OC)c2c([nH]c3ccccc32)c1C(=O)OC`, for which the TGI with CCRF-CEM leukemia, in the experiment on HCT-116 colon, with KM12 colon, in the experiment with NCI-H460 lung, in the experiment on RXF 393 renal and with SNB-75 CNS was greater than 100 µM each time. In addition, the TGI in the experiment on TK-10 renal and in the experiment with UACC-257 melanoma was greater than 100 µM each time.
Regarding `CCN(CC)CC(O)COc1c(Br)c(Br)c(Br)c2c1OC(C)(C)C2` (centres undefined), the GI50 in the experiment on CCRF-CEM leukemia was 1.96 µM; with DU-145 prostate, 5.43 µM; with HCT-116 colon, 3.85 µM; with KM12 colon it was 3.69 µM; with MDA-MB-435 it was 2.66 µM; with NCI-H460 lung, 3.28 µM. For the same compound, the GI50 in the experiment with SNB-75 CNS is 5.31 µM; with TK-10 renal, 4.19 µM; with UACC-257 melanoma, 2.67 µM. For the same compound, the TGI in the experiment with CCRF-CEM leukemia is 4.08 µM; in the experiment on DU-145 prostate, 18.1 µM; with HCT-116 colon, greater than 100 µM; in the experiment with KM12 colon, 13.8 µM; in the experiment on MDA-MB-435 it was 7.31 µM; in the experiment on NCI-H460 lung, 11.6 µM. For the same compound, the TGI in the experiment on SNB-75 CNS came out at 19.4 µM; in the experiment with TK-10 renal, 14.9 µM; with UACC-257 melanoma it was 4.87 µM.

The values are drawn from PubChem BioAssay (NCI).
